Read-outs that look alike come from different tables or passages of the source.
Tests used:
[1] = target: T1, rat 5-HT2C-INI (Rattus norvegicus, UniProt P08909); test: Calcium flux (FLIPR) assay, rat 5-HT2C-INI receptors expressed on PO1C cells; assay type: cell-based; details: data acquired with rat 5-HT2C-INI receptors expressed on PO1C cells; for EC50: NA = no activity at 10 μM, read-out: EC50, nM 5-HT2C (footnote a)
T1 construct: expressed in transfected cells; host or cells: rat PO1C cell line
T1 sequence (P08909 33-460): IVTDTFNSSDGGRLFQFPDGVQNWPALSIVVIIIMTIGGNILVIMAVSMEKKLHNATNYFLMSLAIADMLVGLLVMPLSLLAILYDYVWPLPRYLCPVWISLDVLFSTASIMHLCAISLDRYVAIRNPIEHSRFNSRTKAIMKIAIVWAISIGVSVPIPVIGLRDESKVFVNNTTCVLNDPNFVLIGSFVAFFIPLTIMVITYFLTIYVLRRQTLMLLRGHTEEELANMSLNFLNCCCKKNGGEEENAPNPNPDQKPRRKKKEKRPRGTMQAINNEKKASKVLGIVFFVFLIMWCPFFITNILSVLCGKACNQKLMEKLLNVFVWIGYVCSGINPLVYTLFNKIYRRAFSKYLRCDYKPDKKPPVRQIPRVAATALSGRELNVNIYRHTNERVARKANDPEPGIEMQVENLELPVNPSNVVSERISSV
Method: Rat 5-HT2C-INI Receptors Expressed on PO1C Cells
Rat PO1C cell line stably expressing the rat 5-HT2C-INI was plated onto Poly-L-Lys-coated 384-well black clear bottom cell culture plates in DMEM 1% dialyzed FBS (12 000 cells/well). Preceding the experiment, culture medium was removed and 20 μl of assay buffer (20 mM Hepes, pH 7.40, Hanks' balanced salt solution, 2.5 mM probenecid, 1×FLIPR calcium dye) was added and cells incubated at 37° C. for 1 h. Serial dilution of each tested drugs were prepared at 3× final concentration and transfer to a 384-well plates. Cell and drug plates were placed in a FLIPR^TETRA fluorescence imaging plate reader ([…]) and programmed to read baseline for 10 sec (1 read/s) and then add 10 μl of drug/well and to read additional 120 sec. […] Data were plotted and normalized compared to 5-HT and regressed using sigmoidal dose-response function. Data of two independent experiments (n=2) conducted in quadruplicate are presented. Analyses were performed using the software GraphPad Prism 6.0.

[2] = target: 5-HT2B (Homo sapiens, UniProt P41595); test: Calcium flux (FLIPR) assay, human 5-HT2B stably expressed in HEK-293 (Flp-In-293) cells; details: for Emax, % 5-HT 5-HT2B: normalized to 5-HT
Sequence of 5-HT2B (P41595 whole entry): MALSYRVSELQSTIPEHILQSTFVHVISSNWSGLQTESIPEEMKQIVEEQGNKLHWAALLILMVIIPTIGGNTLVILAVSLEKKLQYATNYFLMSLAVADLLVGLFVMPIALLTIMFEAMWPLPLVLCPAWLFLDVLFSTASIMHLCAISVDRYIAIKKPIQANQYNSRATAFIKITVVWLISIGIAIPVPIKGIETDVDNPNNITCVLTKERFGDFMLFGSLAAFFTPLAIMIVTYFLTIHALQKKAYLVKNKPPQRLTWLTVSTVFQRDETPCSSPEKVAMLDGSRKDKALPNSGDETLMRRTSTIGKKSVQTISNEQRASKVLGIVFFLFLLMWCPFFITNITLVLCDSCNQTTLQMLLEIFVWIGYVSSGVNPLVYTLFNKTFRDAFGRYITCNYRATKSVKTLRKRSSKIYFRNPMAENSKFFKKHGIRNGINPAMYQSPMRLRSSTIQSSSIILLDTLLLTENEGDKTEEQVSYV

[3] = target: 5-HT2A (Homo sapiens, UniProt P28223); test: Calcium flux (FLIPR) assay, human 5-HT2A stably expressed in HEK-293 (Flp-In-293) cells; details: for Emax, % 5-HT 5-HT2A: normalized to 5-HT
Sequence of 5-HT2A (P28223 whole entry): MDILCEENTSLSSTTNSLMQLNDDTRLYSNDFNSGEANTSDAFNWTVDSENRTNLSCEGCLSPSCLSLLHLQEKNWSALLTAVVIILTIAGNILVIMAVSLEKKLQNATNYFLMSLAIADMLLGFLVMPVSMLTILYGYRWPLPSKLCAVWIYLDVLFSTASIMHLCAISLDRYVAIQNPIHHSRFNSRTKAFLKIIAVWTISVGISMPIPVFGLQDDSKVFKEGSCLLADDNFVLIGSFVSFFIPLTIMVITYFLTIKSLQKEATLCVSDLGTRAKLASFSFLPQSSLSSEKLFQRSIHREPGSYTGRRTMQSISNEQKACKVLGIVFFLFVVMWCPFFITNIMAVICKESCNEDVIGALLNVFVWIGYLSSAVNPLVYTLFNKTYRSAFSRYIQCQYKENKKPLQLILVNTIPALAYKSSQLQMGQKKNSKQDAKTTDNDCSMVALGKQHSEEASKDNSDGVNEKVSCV

[4] = target: T2, human 5-HT2C-INI (Homo sapiens, UniProt P28335); test: Calcium flux (FLIPR) assay, human 5-HT2C-INI stably expressed in HEK-293 (Flp-In-293) cells; details: human 5-HT2C-INI in HEK-293 cells, FLIPR; for EC50: NA = no activity at 10 μM; for Emax, % 5-HT 5-HT2C: normalized to 5-HT
T2 sequence (P28335 33-458): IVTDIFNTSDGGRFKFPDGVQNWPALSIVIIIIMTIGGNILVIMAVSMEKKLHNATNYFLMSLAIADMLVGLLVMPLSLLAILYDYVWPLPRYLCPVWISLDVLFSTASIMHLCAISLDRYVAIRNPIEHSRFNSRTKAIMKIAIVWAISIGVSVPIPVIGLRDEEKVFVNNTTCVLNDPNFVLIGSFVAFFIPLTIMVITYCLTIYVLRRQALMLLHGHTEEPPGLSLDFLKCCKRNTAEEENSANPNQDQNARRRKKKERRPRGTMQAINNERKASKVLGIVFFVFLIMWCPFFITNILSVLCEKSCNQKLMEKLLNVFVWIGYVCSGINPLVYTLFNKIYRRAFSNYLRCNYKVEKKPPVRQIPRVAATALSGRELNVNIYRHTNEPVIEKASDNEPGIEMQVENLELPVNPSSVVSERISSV

[5] = EC50, nM 5-HT2B, human 5-HT2B in HEK-293 cells, NA = no activity at 10 μM
[6] = EC50, nM 5-HT2A, human 5-HT2A in HEK-293 cells, FLIPR, NA = no activity at 10 μM
[7] = human 5-HT2A in HEK-293 cells, FLIPR
[8] = read-out: EC50, nM 5-HT2B, human 5-HT2B in HEK-293 cells, NA = no activity at 10 μM
[9] = read-out: EC50, nM 5-HT2A, human 5-HT2A in HEK-293 cells, FLIPR, NA = no activity at 10 μM

Structure (SMILES) | Emax, % 5-HT 5-HT2C (footnote a) [1] | EC50 [1] | EC50 [2, 5] | Emax, % 5-HT 5-HT2B ([2]; human 5-HT2B in HEK-293 cells) | EC50 [3, 6] | Emax, % 5-HT 5-HT2A [3, 7] | EC50 ([4]; EC50, nM 5-HT2C) | Emax, % 5-HT 5-HT2C [4] | EC50 [2, 8] | EC50 [3, 9] | EC50 ([4]; read-out: EC50, nM 5-HT2C) | EC50 [3]
CC(C)Oc1cc(F)c(Cl)cc1C1CC1CN (single isomer, unassigned; (+)) [(+)-Example 3, (+)-(2-(5-Chloro-4-fluoro-2-isopropoxyphenyl)cyclopropyl)methanamine] | (91%) ^a % 5-HT | 56 nM |  |  |  |  |  |  |  |  |  | 
NCC1CC1c1cc(Cl)ccc1OCC(F)(F)F (single isomer, unassigned; (+)) [(+)-Example 22, (+)-(2-(5-Chloro-2-(2,2,2-trifluoroethoxy)phenyl)cyclopropyl)methanamine] | (85%) ^a % 5-HT | 495 nM |  |  |  |  |  |  |  |  |  | 
NCC1CC1c1cc(Cl)ccc1Oc1ccccc1 (single isomer, unassigned; (+)) [(+)-Example 27, (+)-(2-(5-Chloro-2-phenoxyphenyl)cyclopropyl)methanamine] | (79%) ^a % 5-HT | 1800 nM |  |  |  |  |  |  |  |  |  | 
CC(C)Oc1cc(F)c(Cl)cc1C1CC1CN (single isomer, unassigned; (-)) [(−)-Example 3, (−)-(2-(5-Chloro-4-fluoro-2-isopropoxyphenyl)cyclopropyl)methanamine] | (86%) ^a % 5-HT | 588 nM |  |  |  |  |  |  |  |  |  | 
NCC1CC1c1cc(Cl)ccc1OCC(F)F (single isomer, unassigned; (-)) [(−)-Example 21, (−)-(2-(5-Chloro-2-(2,2-difluoroethoxy)phenyl)cyclopropyl)methanamine] |  |  | 1480 nM | (30%) % 5-HT | 1300 nM | (43%) % 5-HT | 914 nM | (64%) % 5-HT |  |  |  | 
NCC1CC1c1cc(Cl)ccc1Oc1ccccc1 (single isomer, unassigned; (-)) [(−)-Example 27, (−)-(2-(5-Chloro-2-phenoxyphenyl)cyclopropyl)methanamine] | (42%) ^a % 5-HT | 3960 nM |  |  |  |  |  |  |  |  |  | 
NCC1CC1c1cc(Cl)ccc1OCc1ccccc1 (single isomer, unassigned; (-)) [(−)-Example 28, (−)-(2-(2-(benzyloxy)-5-chlorophenyl)cyclopropyl)methanamine] | (51%) ^a % 5-HT | 1540 nM |  |  |  |  |  |  |  |  |  | 
COc1ccc(Cl)c(F)c1C1CC1CN (single isomer, unassigned; (-)) [(−)-Example 29, (−)-(2-(3-chloro-2-fluoro-6-methoxyphenyl)cyclopropyl)methanamine] |  |  |  | (64%) % 5-HT |  | (86%) % 5-HT |  | (93%) % 5-HT | 165 nM | 68 nM | 3.8 nM | 
CCOc1ccc(Cl)c(F)c1C1CC1CN (single isomer, unassigned; (-)) [(−)-Example 30, (−)-(2-(3-Chloro-6-ethoxy-2-fluorophenyl)cyclopropyl)methanamine] |  |  | 7420 nM | (51%) % 5-HT | 819 nM | (31%) % 5-HT | 97 nM | (90%) % 5-HT |  |  |  | 
C=CCOc1ccc(Cl)c(F)c1C1CC1CN (single isomer, unassigned; (-)) [(−)-Example 32, (−)-(2-(6-(Allyloxy)-3-chloro-2-fluorophenyl)cyclopropyl)methanamine] |  |  |  | (5%) % 5-HT |  | (16%) % 5-HT | 165 nM | (87%) % 5-HT |  |  |  | 1080 nM
COc1cc(Cl)c(Cl)cc1C1CC1CN (single isomer, unassigned; (-)) [(−)-Example 33, (−)-(2-(4,5-Dichloro-2-methoxyphenyl)cyclopropyl)methanamine] |  |  |  | (16%) % 5-HT |  | (75%) % 5-HT |  | (89%) % 5-HT | 696 nM | 84 nM | 14 nM | 
NCC1CC1c1cc(Cl)c(Cl)cc1OCCF (single isomer, unassigned; (-)) [(−)-Example 34, (−)-(2-(4,5-Dichloro-2-(2-fluoroethoxy)phenyl)cyclopropyl)methanamine] |  |  |  | (12%) % 5-HT |  | (4%) % 5-HT | 435 nM | (75%) % 5-HT |  |  |  | 
COc1ccc(Cl)c(Cl)c1C1CC1CN (single isomer, unassigned; (-)) [(−)-Example 36, (−)-(2-(2,3-Dichloro-6-methoxyphenyl)cyclopropyl)methanamine] |  |  |  | (62%) % 5-HT |  | (88%) % 5-HT |  | (104%) % 5-HT | 51 nM | 38 nM | 0.95 nM | 
CCOc1ccc(Cl)c(Cl)c1C1CC1CN (single isomer, unassigned; (-)) [(−)-Example 37, (−)-(2-(2,3-Dichloro-6-ethoxyphenyl)cyclopropyl)methanamine] |  |  | 6830 nM | (53%) % 5-HT | 625 nM | (12%) % 5-HT | 30 nM | (104%) % 5-HT |  |  |  | 
C=CCOc1ccc(Cl)c(Cl)c1C1CC1CN (single isomer, unassigned; (-)) [(−)-Example 39] |  |  |  | (99%) % 5-HT |  | (32%) % 5-HT |  | (93%) % 5-HT | 3960 nM | 426 nM | 108 nM | 
CCOc1cc(F)c(F)cc1C1CC1CN (single isomer, unassigned; (-)) [(−)-Example 41, (−)-(2-(2-Ethoxy-4,5-difluorophenyl)cyclopropyl)methanamine] |  |  | 299 nM | (35%) % 5-HT | 778 nM | (52%) % 5-HT | 33 nM | (103%) % 5-HT |  |  |  | 
COc1ccc(F)c(F)c1C1CC1CN (single isomer, unassigned; (-)) [(−)-Example 45, (−)-(2-(2,3-Difluoro-6-methoxyphenyl)cyclopropyl)methanamine] |  |  |  | (62%) % 5-HT |  | (72%) % 5-HT |  | (108%) % 5-HT | 462 nM | 461 nM | 16 nM | 
CCOc1ccc(F)c(F)c1C1CC1CN (single isomer, unassigned; (-)) [(−)-Example 46, (−)-(2-(6-Ethoxy-2,3-difluorophenyl)cyclopropyl)methanamine] |  |  | 4270 nM | (30%) % 5-HT | 2150 nM | (18%) % 5-HT | 83 nM | (99%) % 5-HT |  |  |  | 

Source: patent publication US10407381B2 (THE BOARD OF TRUSTEES OF THE UNIVERSITY OF ILLINOIS, priority 2015, dated 2019)
